One test addresses T1, RARα (Homo sapiens, UniProt P10276).
T1 sequence (P10276 1-462): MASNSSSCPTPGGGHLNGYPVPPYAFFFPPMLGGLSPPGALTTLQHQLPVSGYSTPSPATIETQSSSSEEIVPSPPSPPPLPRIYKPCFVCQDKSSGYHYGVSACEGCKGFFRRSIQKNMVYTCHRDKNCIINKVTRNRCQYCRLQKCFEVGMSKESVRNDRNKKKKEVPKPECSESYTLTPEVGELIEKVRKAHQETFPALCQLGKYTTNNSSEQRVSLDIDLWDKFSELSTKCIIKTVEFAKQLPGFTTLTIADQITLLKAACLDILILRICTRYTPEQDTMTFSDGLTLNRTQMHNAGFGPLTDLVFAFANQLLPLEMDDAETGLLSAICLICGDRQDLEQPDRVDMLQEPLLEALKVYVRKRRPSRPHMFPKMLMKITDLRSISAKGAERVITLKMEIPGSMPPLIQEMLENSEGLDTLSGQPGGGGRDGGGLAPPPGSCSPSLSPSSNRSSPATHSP
The test is described as follows: Binding to baculovirus-expressed RARα. To be noted: baculovirus-expressed receptor. The arrangement: made in house. From the text: (§1) Prostate cancer is one of the most common cancers in European and American males and has a high mortality rate (Landis et al, 1998; Rosenthal, 1998). Early disease is managed conservatively in Europe although in selected patients surgery is curative. In advanced disease, androgen ablation can produce symptomatic improvement, but the tumour often re-emerges in an androgen- independent and incurable form. One proposed treatment for androgen-independent prostate carcinoma is differentiation ther- apy, in which agents such as all-trans-retinoic acid (ATRA), 9-cis- retinoic acid and 1, 25-dihydroxyvitamin D3 (D3 ) are used to induce growth arrest, differentiation and sometimes apoptosis of the tumour cells (Liang et al, 1999; de Vos et al, 1997; Skowronski et al, 1994; Hedlund et al, 1997). ATRA and synthetic analogues exert their biological effects by binding to two families of retinoid receptors, […]. These are ligand-dependent transcription factors of the steroid/thyroid hormone nuclear receptor superfamily (Chambon 1994; Boehm et al, 1995). Activated RARs bind to retinoic acid-responsive elements (RAREs) in the promoters of genes and thus regulate gene expression. They also antagonize the activity of the tran- scription factor AP1 and thereby down-regulate the expression of some AP1-activated genes (Nagpal et al, 1995). One approach to unravelling the contributions of RAR sub-types to these actions has been the development of synthetic retinoids with selective activities at individual RARs and RXRs. For example, the diaryl- acetylenic retinoids allow separation of transactivation and AP1 antagonism functions at RAR (Nagpal et al, 1995). Recently, compounds that are selective for particular RAR sub-types have been synthesized: these include both agonists and antagonists (Chandraratna, 1995; Teng et al, 1999; Johnson et al, 1999). The functional selectivity of these compounds may open the way to achieving differentiation or apoptosis of tumour cells with minimal systemic side effects (Chandraratna, 1995). Cell lines that are commonly used in the evaluation of investiga- tional agents for prostate cancer include LNCaP, DU-145 and PC- 3. […] These lines are relatively insensitive to growth inhibition and induction of apoptosis by ATRA and by synthetic agonists. […] Fenretinide (4HPR) induces apoptosis of LNCaP and of PC-3 cells at 1-5 M and 25 µM, respectively (Pienta et al, 1993; Heish and Wu, 1997). Pfahl and colleagues examined the growth inhibitory effects of a panel of receptor-selective retinoids against DU145 and PC-3 cells and achieved complete growth inhibition and induction of apoptosis between 1 M and 10 M (Lu et al, 1999). […] Antagonists of retinoic acid receptors (RARs) are potent growth inhibitors of prostate carcinoma cells LA Hammond1 , CH Van Krinks2 , J Durham2 , SE Tomkins2 , RD Burnett3 , EL Jones1 , RAS Chandraratna3 and G Brown2 Divisions of 1 Cancer Studies and of 2 Immunity and Infection, University of Birmingham Medical School, Edgbaston, Birmingham B15 2TT, UK and 3 Retinoid Research, Allergan Inc., Irvine, California, USA Summary Novel synthetic antagonists of retinoic acid receptors (RARs) have been developed. To avoid interference by serum retinoids when testing these compounds, we established serum-free grown sub-lines (>3 years) of the prostate carcinoma lines LNCaP, PC3 and DU145. […] A component(s) of serum and of LNCaP-conditioned medium diminishes the activity of antagonists: this factor is not the most likely candidates IGF-1 and EGF. In vitro studies of RAR antagonists together with data from RAR-null mice lead to the hypothesis that RAR-regulated gene transcription is necessary for the survival and maintenance of prostate epithelium. […]

In a further test the test system is HL60 cells. Briefly: ATRA-induced differentiation of HL60 cells to neutrophils (nitroblue tetrazolium reduction). Conditions: antagonist at 100 nM added with 100 nM ATRA. The class given is cell-based, human. From the text: Prostate cancer is one of the most common cancers in European and American males and has a high mortality rate (Landis et al, 1998; Rosenthal, 1998). Early disease is managed conservatively in Europe although in selected patients surgery is curative. In advanced disease, androgen ablation can produce symptomatic improvement, but the tumour often re-emerges in an androgen- independent and incurable form. One proposed treatment for androgen-independent prostate carcinoma is differentiation ther- apy, in which agents such as all-trans-retinoic acid (ATRA), 9-cis- retinoic acid and 1, 25-dihydroxyvitamin D3 (D3 ) are used to induce growth arrest, differentiation and sometimes apoptosis of the tumour cells (Liang et al, 1999; de Vos et al, 1997; Skowronski et al, 1994; Hedlund et al, 1997). ATRA and synthetic analogues exert their biological effects by binding to two families of retinoid receptors, […]. These are ligand-dependent transcription factors of the steroid/thyroid hormone nuclear receptor superfamily (Chambon 1994; Boehm et al, 1995). Activated RARs bind to retinoic acid-responsive elements (RAREs) in the promoters of genes and thus regulate gene expression. They also antagonize the activity of the tran- scription factor AP1 and thereby down-regulate the expression of some AP1-activated genes (Nagpal et al, 1995). […]

The target in the next test is T2, RARγ (Homo sapiens, UniProt P13631).
T2 sequence (P13631 1-454): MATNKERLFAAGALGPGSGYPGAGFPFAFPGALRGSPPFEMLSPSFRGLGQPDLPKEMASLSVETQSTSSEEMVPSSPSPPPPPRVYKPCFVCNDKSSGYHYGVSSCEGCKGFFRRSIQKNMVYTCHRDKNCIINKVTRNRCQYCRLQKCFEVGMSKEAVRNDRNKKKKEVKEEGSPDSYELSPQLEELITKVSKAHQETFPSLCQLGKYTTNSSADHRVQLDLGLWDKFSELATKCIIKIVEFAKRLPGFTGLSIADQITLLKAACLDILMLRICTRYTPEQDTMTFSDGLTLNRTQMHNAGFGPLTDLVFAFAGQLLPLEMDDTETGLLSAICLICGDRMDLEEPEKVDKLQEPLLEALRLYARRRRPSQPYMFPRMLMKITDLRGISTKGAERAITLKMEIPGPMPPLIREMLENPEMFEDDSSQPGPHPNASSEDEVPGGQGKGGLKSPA
The test is described as follows: Binding to baculovirus-expressed RARγ. To be noted: baculovirus-expressed receptor. The arrangement: made in house.
From the text: as §1

Experimental findings from paper PMC2364081, “Antagonists of retinoic acid receptors (RARs) are potent growth inhibitors of prostate carcinoma cells” (British Journal of Cancer, 2001) are described below.

For orientation: Kd means the free concentration of one partner at which half of the binding sites on the other are occupied at equilibrium, for simple one-to-one binding.

For `CCc1ccc(C2=CC(C)(C)Sc3ccc(C#Cc4ccc(C(=O)O)cc4)cc32)cc1` [AGN194310], the Kd on RARα is 3 nM; at RARγ, 5 nM. The “percentage of mature cells” value in the test on HL60 cells is 5%.
